{"source": "patent US20090181086A1", "about": "(priority 2008, published 2009)", "origin": "cited, not measured here", "key": {"[1]": {"test_system": "monoamine oxidase type B (MAO-B)", "conditions": "ex vivo, brain, liver and intestinal tissues"}, "CYP1A2": {"target": "CYP1A2 (Homo sapiens, UniProt P05177)", "sequence (P05177 whole entry, species assumed)": "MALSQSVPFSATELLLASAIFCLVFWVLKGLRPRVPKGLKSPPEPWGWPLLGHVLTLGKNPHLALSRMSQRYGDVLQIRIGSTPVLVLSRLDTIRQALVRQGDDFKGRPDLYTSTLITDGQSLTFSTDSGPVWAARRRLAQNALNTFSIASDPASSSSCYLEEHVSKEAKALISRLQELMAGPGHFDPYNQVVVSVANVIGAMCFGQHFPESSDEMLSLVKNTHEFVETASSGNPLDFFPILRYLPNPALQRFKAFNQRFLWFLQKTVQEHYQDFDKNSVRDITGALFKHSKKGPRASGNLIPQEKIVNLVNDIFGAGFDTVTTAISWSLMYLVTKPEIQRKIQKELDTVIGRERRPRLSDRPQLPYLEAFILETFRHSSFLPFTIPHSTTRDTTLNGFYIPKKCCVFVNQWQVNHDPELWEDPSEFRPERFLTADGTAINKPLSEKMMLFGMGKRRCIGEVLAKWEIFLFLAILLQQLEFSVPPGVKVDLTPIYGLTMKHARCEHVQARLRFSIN", "conditions": "in vitro"}, "platelet MAO-B": {"target": "platelet MAO-B (Homo sapiens, UniProt P27338)", "sequence (P27338 whole entry)": "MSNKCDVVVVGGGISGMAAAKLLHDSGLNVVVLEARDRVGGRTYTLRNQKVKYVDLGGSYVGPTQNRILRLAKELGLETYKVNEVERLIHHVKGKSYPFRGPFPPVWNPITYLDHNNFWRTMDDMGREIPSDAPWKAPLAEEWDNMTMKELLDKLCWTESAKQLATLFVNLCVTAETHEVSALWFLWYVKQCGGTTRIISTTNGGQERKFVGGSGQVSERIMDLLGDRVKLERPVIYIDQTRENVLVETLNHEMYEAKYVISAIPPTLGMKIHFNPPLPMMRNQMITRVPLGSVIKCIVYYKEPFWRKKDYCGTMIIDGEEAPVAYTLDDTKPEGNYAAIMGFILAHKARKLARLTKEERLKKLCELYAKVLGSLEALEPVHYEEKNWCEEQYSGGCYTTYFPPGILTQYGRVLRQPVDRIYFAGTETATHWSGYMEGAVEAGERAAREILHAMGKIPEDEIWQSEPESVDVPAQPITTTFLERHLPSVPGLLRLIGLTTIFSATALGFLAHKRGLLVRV"}, "human albumin": {"target": "human albumin (Homo sapiens, UniProt P02768)", "sequence (P02768 25-609)": "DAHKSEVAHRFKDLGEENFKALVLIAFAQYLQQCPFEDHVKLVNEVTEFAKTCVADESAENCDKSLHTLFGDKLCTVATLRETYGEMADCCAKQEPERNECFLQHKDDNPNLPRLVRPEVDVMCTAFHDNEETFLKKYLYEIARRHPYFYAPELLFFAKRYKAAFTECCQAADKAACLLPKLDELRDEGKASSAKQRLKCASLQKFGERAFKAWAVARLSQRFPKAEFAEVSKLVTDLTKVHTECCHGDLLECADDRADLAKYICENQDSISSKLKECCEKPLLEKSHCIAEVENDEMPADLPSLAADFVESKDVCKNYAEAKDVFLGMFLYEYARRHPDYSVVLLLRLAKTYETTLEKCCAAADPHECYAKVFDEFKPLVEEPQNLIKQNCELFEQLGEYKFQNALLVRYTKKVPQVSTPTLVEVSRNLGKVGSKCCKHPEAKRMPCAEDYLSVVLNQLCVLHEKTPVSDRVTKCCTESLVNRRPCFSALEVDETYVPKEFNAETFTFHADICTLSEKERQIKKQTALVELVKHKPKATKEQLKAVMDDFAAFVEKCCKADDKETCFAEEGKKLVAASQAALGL", "conditions": "concentration range of 1-100 ng/mL"}, "[2]": {"conditions": "oral 14C-labeled rasagiline, over 7 days"}}, "note": "Where two headings read alike, the source gives them in different places.", "data": [{"smiles": "C#CCN[C@@H]1CCc2ccccc21", "note": "[rasagiline, R(+)-N-propargyl-1-aminoindan]", "values": [{"measurement": "pharmacokinetics versus dose, in words", "setting": "doses over the range of 1-10 mg", "value": "linear"}, {"measurement": "absolute bioavailability", "setting": "human, in vivo", "value": "about 36%"}, {"measurement": "effect of food on Tmax, in words", "setting": "human, in vivo", "value": "does not affect"}, {"measurement": "excreted as unchanged drug in urine", "setting": "human, in vivo", "value": "Less than 1%"}, {"measurement": "mean steady-state half life", "setting": "human, in vivo", "value": 3, "unit": "h"}, {"measurement": "mean volume of distribution at steady-state", "setting": "human, in vivo", "value": 87, "unit": "L"}, {"measurement": "elimination via feces", "setting": "[2]", "value": "7 % of total dose"}, {"measurement": "elimination via urine", "setting": "[2]", "value": "62 % of total dose"}, {"measurement": "total calculated recovery", "setting": "oral 14C-labeled rasagiline, over a period of 38 days", "value": "84 % of the dose"}, {"measurement": "decrease of Cmax", "setting": "taken with a high fat meal", "value": "approximately 60%"}, {"measurement": "decrease of exposure (AUC)", "setting": "taken with a high fat meal", "value": "~20", "unit": "%"}, {"measurement": "MAO-B inhibition, in words", "setting": "[1]", "value": "potent, irreversible monoamine oxidase type B (MAO-B) selective inhibitor"}, {"measurement": "isoenzyme involved in rasagiline metabolism, in words", "setting": "CYP1A2", "value": "CYP1A2 being the major isoenzyme involved"}, {"measurement": "Plasma protein binding", "setting": "plasma protein", "value": "88-94%"}, {"measurement": "MAO-B inhibition", "setting": "platelet MAO-B; 3 days after daily dosing at 2 mg/day, maintained 3 days post-dose", "value": "Over 90%"}, {"measurement": "MAO-B inhibition", "setting": "platelet MAO-B; after a single rasagiline dose of 1 mg/day", "value": "25-35%"}, {"measurement": "MAO-B inhibition", "setting": "platelet MAO-B; after a single rasagiline dose of 2 mg/day", "value": "more than 55%"}, {"measurement": "duration of platelet MAO-B inhibition after last dose", "setting": "platelet MAO-B; human, in vivo", "value": "at least 1 week"}, {"measurement": "MAO-B inhibition, in words", "setting": "platelet MAO-B; multiple doses of 0.5, 1 and 2 mg per day", "value": "complete MAO-B inhibition"}, {"measurement": "MAO-B inhibition in platelets, in words", "setting": "platelet MAO-B; recommended therapeutic dose", "value": "potent and irreversible inhibitor of MAO-B"}, {"measurement": "mean extent of binding to human albumin", "setting": "human albumin", "value": "61-63%"}]}]}
